Source: US20210205253A1, “Use Of Stearic Acid For Preventing Or Treating Pulmonary Fibrosis” (THE ASAN FOUNDATION, priority 2018, published 2021)

Experiments:
[1] = test system: human primary fibroblasts; experiment: Combined treatment of stearic acid and nintedanib in human primary fibroblasts; format: cell-based; details: 40 μM stearic acid single treatment versus TGF single treatment
Protocol: The primary fibroblasts derived from the patients with idiopathic pulmonary fibrosis used in the following experiment were cultured for 7 to 10 days while cutting the lung tissue of the patient into 1×1 mm^2 slices, and then periodically exchanging a cell culture solution (Eagle's minimal essential medium; EMEM) supplemented with 100 unit/ml penicillin, 100 μg/ml streptomycin, and 10% fetal bovine serum (FBS) under conditions of 5% CO2 and 37° C., and cells of passage 2 to 5 were used for the experiment. To verify the anti-fibrotic effect by the combined treatment of stearic acid and nintedanib, which is another therapeutic agent for idiopathic pulmonary fibrosis, human primary fibroblasts were respectively or simultaneously treated with 5 ng/ml TGF-β, 40 μM stearic acid, and 1.5 or 2 μM nintedanib for 24 hours, and then the expression levels of collagen type 1 (COL-1) and α-SMA, which are markers of fibrosis, were measured, respectively.

[2] = test system: pulmonary fibroblasts; experiment: Collagen 1 and α-SMA immunoblotting in pulmonary fibroblasts; format: cell-based, human; details: stearic acid 40 uM/mL
Protocol: After epithelial cells and fibroblasts were aliquoted into 6-well plates at 2×10^4 cells/well and a stabilization time was imparted for 24 hours, and 15 hours after deficiency, cells were treated with stearic acid (40 uM/mL), TGF-β (5 ng/mL), and stearic acid (40 uM/mL)+TGF-β (5 ng/mL) in this order. After the cells were cultured in an incubator for 24 hours after the treatment, the next-step experiment was performed. After 24 hours of cell stimulation by the method of Example 1-3, the cells were washed twice with iced phosphate buffer saline (PBS), a protein lysate solution was put thereinto, the cells were scraped out and collected in a 1.5 ml EP tube, and then the cells were lysed in a grinder for 30 seconds. Next, centrifugation was performed at a speed of 14,000 rpm at 4° C. for 20 minutes, and the protein was quantified using the BCA analysis method. Thereafter, the protein sample was boiled at 95° C. for 10 minutes for the same amount of protein, and then the expression levels of collagen type 1 and α-SMA were measured by immunoblotting. After the expression level of the protein was confirmed, a significance test between samples was performed using a statistical program. […] The collagen 1/actin or α-SMA/actin indicated on the y-axis of FIGS. 4A and 4B means a value obtained by correcting the protein amount of collagen 1 or α-SMA with the amount of actin, which is an intracellular control protein. […] Further, referring to the test method of obtaining the results in FIG. 4, after pulmonary fibroblasts were treated with palmitic acid at various concentrations (10, 20, and 40 μM/mL), the levels of collagen 1 (collagen 1/actin; FIG. 6A) and α-SMA (α-SMA/actin; FIG. 6B), which are intracellular fibrosis markers, were measured, and shown as relative values to the control (CTL; medium only). […] 40 uM/mL stearic acid, 10 uM/mL palmitic acid, and 5 ng/mL TGF-β were used in the experiment, respectively. […] In addition, referring to the test method of obtaining the results in FIG. 7, the experiment was performed using oleic acid (OA) instead of palmitic acid, and the levels of collagen 1 (collagen 1/actin; FIG. 8A) and α-SMA (α-SMA/actin; FIG. 8B) were measured and shown as relative values to the control (CTL; medium only). 40 uM/mL stearic acid, 40 uM/mL oleic acid, and 5 ng/mL TGF-β were used in the experiment, respectively.

[3] = test system: human primary fibroblasts; experiment: Combined treatment of stearic acid and pirfenidone in human primary fibroblasts (western blotting); format: cell-based; details: TGF-β 5 ng/ml; 40 μM stearic acid single treatment (Lane 4)
Protocol: The primary fibroblasts derived from the patients with idiopathic pulmonary fibrosis used in the following experiment were cultured for 7 to 10 days while cutting the lung tissue of the patient into 1×1 mm^2 slices, and then periodically exchanging a cell culture solution (Eagle's minimal essential medium; EMEM) supplemented with 100 unit/ml penicillin, 100 μg/ml streptomycin, and 10% fetal bovine serum (FBS) under conditions of 5% CO2 and 37° C., and cells of passage 2 to 5 were used for the experiment.
To verify the anti-fibrotic effect by the combined treatment of stearic acid and pirfenidone, which is a therapeutic agent for idiopathic pulmonary fibrosis, the human primary fibroblasts isolated by the above-described method were respectively or simultaneously treated with 5 ng/ml TGF-β, 40 μM stearic acid, and 400 or 800 μM pirfenidone for 24 hours, and then the expression levels of collagen type 1 (COL-1) and α-SMA, which are markers of fibrosis, were measured by western blotting, and the inhibitory rate was quantitatively analyzed by correcting the amount of each protein with the amount of actin, which is an intracellular control protein.

[4] = test system: p-Smad2/3 and Smad7 in MRC-5 cells; experiment: p-Smad2/3 and Smad7 expression in fibroblasts; format: cell-based, human; details: 40 μM stearic acid pre-treatment 16 h, TGF-β1 1 h
Protocol: The present inventors pre-treated a human pulmonary fibroblast cell line MRC-5 with 40 μM stearic acid for 16 hours, treated the MRC-5 cells with TGF-β1 for 1 hour, and then examined the expression levels of p-Smad2/3 and Smad7 in order to elucidate the anti-fibrotic mechanism of stearic acid in human pulmonary fibroblasts (FIGS. 12A and 12B). Further, to investigate the effect of stearic acid on the production of reactive oxygen species (ROS), MRC-5 cells were pre-treated with 40 μM stearic acid for 16 hours, and cells treated with TGF-β1 for 1 hour were stained with DCF-DA and analyzed by FACS (FIG. 12C). Furthermore, MRC-5 cells were pre-treated with 5 mM N-acetylcysteine (NAC), which is an antioxidant, for 1 hour and treated with TGF-β1 for 1 hour, and then the expression of p-Smad2/3 was examined (FIG. 12D).

[5] = test system: pulmonary fibrosis induced by bleomycin; experiment: Stearic acid in bleomycin-induced pulmonary fibrosis animal model; format: in vivo, mice (C57BL6J)
Description: Based on the results of Example 2-2, the present inventors attempted to verify the anti-fibrotic effect of stearic acid in an animal model in which pulmonary fibrosis was induced by bleomycin. For this purpose, 6-week-old mice (C57BL6J) were classified into the following 4 groups of 4 or 5 mice, respectively: groups treated with (1) intratracheal saline+vehicle, (2) intratracheal saline+stearic acid, (3) intratracheal 4 units/kg bleomycin+vehicle, and (4) intratracheal bleomycin+stearic acid. Subsequently, mice were anesthetized with 50 mg/kg […] and 5 mg/kg Rompun, followed by infusion of bleomycin and saline into the trachea. The mice were treated with 3 mg/kg stearic acid using oral gavage (zonde) three times a week for 3 weeks. Thereafter, on day 21, lung tissues and blood were collected from the mice and used for the study.

[6] = increase by oleic acid 40 uM/mL
[7] = increase by palmitic acid 10 uM/mL
[8] = day 21, stearic acid 3 mg/kg oral

Question: What does the source list for `CCCCCCCCCCCCCCCCCC(=O)O` [stearic acid]?
Answer: expression level of COL-1 [1]: no change; expression level of α-SMA [1]: no change; collagen 1/actin ([2]; increase by TGF-β 5 ng/mL): significantly inhibited; α-SMA/actin ([2]; increase by TGF-β 5 ng/mL): significantly inhibited; collagen 1/actin [2, 6]: significantly inhibited; α-SMA/actin [2, 6]: significantly inhibited; collagen 1/actin [2, 7]: significantly inhibited; α-SMA/actin [2, 7]: significantly inhibited; change in COL-1 [3]: insignificant; α-SMA [3]: reduced; expression of Smad 7 reduced by TGF-β1 [4]: restored; expression of p-Smad2/3 induced by TGF-β1 [4]: inhibited; reduction in body weight due to bleomycin ([5]; day 7, stearic acid 3 mg/kg oral gavage three times a week): significantly inhibited; expression of p-Smad2/3 in lung tissues [5, 8]: inhibition of an increase in expression of p-Smad2/3; expression of α-SMA in lung tissues [5, 8]: inhibiting an increase in expression of α-SMA; histopathological characteristics of pulmonary fibrosis (H&E) ([5]; day 21, stearic acid 3 mg/kg oral, 3 weeks): remarkably reduced; accumulation of hydroxyproline ([5]; lung tissue, day 21, stearic acid 3 mg/kg oral): inhibiting the accumulation of hydroxyproline; blood level of TGF-β1 ([5]; serum, day 21, stearic acid 3 mg/kg oral): inhibiting an increase in the blood level of TGF-β1
